Reference: the NIST ThermoML archive (doi:10.1021/je500696p)

Legend:
[1] = xn = mol fraction of the nth substance listed; conditions: 100 kPa, Liquid, Vibrating tube method
[2] = excess molar enthalpy (molar enthalpy of mixing); xn = mol fraction of the nth substance listed; conditions: 100 kPa, Liquid, Calvet calorimetry

CCCC[N+](C)(C)C.O=S(=O)([N-]S(=O)(=O)C(F)(F)F)C(F)(F)F [butyltrimethylammonium bis(trifluoromethylsulfonyl)imide] + CCCO
Conditions	excess molar enthalpy [kcal/mol]	mass density [kg/m3]
[1], 293.15 K, x2 = 0	–	1397.1
[1], 293.15 K, x2 = 0.1273	–	1375
[1], 293.15 K, x2 = 0.2596	–	1346.9
[1], 293.15 K, x2 = 0.3787	–	1315
[1], 293.15 K, x2 = 0.4996	–	1273.9
[1], 293.15 K, x2 = 0.6368	–	1210.1
[1], 293.15 K, x2 = 0.7624	–	1126
[1], 293.15 K, x2 = 0.8787	–	1008.7
[1], 293.15 K, x2 = 0.9498	–	903.9
[1], 293.15 K, x2 = 0.9799	–	847.3
[1], 295.15 K, x2 = 0	–	1395.3
[1], 295.15 K, x2 = 0.1273	–	1373.2
[1], 295.15 K, x2 = 0.2596	–	1345.1
[1], 295.15 K, x2 = 0.3787	–	1313.2
[1], 295.15 K, x2 = 0.4996	–	1272.1
[1], 295.15 K, x2 = 0.6368	–	1208.3
[1], 295.15 K, x2 = 0.7624	–	1124.2
[1], 295.15 K, x2 = 0.8787	–	1006.9
[1], 295.15 K, x2 = 0.9498	–	902.2
[1], 295.15 K, x2 = 0.9799	–	845.7
[1], 298.15 K, x2 = 0	–	1392.7
[1], 298.15 K, x2 = 0.1273	–	1370.6
[1], 298.15 K, x2 = 0.2596	–	1342.4
[1], 298.15 K, x2 = 0.3787	–	1310.6
[1], 298.15 K, x2 = 0.4996	–	1269.4
[1], 298.15 K, x2 = 0.6368	–	1205.6
[1], 298.15 K, x2 = 0.7624	–	1121.4
[1], 298.15 K, x2 = 0.8787	–	1004.3
[1], 298.15 K, x2 = 0.9498	–	899.7
[1], 298.15 K, x2 = 0.9799	–	843.2
[1], 303.15 K, x2 = 0	–	1388.3
[1], 303.15 K, x2 = 0.1273	–	1366.2
[1], 303.15 K, x2 = 0.2596	–	1338
[1], 303.15 K, x2 = 0.3787	–	1306.1
[1], 303.15 K, x2 = 0.4996	–	1264.9
[1], 303.15 K, x2 = 0.6368	–	1201.1
[1], 303.15 K, x2 = 0.7624	–	1117
[1], 303.15 K, x2 = 0.8787	–	999.9
[1], 303.15 K, x2 = 0.9498	–	895.5
[1], 303.15 K, x2 = 0.9799	–	839.1
[1], 308.15 K, x2 = 0	–	1384
[1], 308.15 K, x2 = 0.1273	–	1361.8
[1], 308.15 K, x2 = 0.2596	–	1333.5
[1], 308.15 K, x2 = 0.3787	–	1301.6
[1], 308.15 K, x2 = 0.4996	–	1260.4
[1], 308.15 K, x2 = 0.6368	–	1196.5
[1], 308.15 K, x2 = 0.7624	–	1112.5
[1], 308.15 K, x2 = 0.8787	–	995.5
[1], 308.15 K, x2 = 0.9498	–	891.2
[1], 308.15 K, x2 = 0.9799	–	835
[1], 313.15 K, x2 = 0	–	1379.6
[1], 313.15 K, x2 = 0.1273	–	1357.4
[1], 313.15 K, x2 = 0.2596	–	1329.1
[1], 313.15 K, x2 = 0.3787	–	1297.2
[1], 313.15 K, x2 = 0.4996	–	1255.9
[1], 313.15 K, x2 = 0.6368	–	1192
[1], 313.15 K, x2 = 0.7624	–	1107.9
[1], 313.15 K, x2 = 0.8787	–	991.1
[1], 313.15 K, x2 = 0.9498	–	887
[1], 313.15 K, x2 = 0.9799	–	830.8
[1], 318.15 K, x2 = 0	–	1375.2
[1], 318.15 K, x2 = 0.1273	–	1353
[1], 318.15 K, x2 = 0.2596	–	1324.7
[1], 318.15 K, x2 = 0.3787	–	1292.7
[1], 318.15 K, x2 = 0.4996	–	1251.4
[1], 318.15 K, x2 = 0.6368	–	1187.4
[1], 318.15 K, x2 = 0.7624	–	1103.4
[1], 318.15 K, x2 = 0.8787	–	986.7
[1], 318.15 K, x2 = 0.9498	–	882.6
[1], 318.15 K, x2 = 0.9799	–	826.6
[1], 323.15 K, x2 = 0	–	1370.9
[1], 323.15 K, x2 = 0.1273	–	1348.6
[1], 323.15 K, x2 = 0.2596	–	1320.3
[1], 323.15 K, x2 = 0.3787	–	1288.2
[1], 323.15 K, x2 = 0.4996	–	1246.9
[1], 323.15 K, x2 = 0.6368	–	1182.9
[1], 323.15 K, x2 = 0.7624	–	1098.8
[1], 323.15 K, x2 = 0.8787	–	982.2
[1], 323.15 K, x2 = 0.9498	–	878.3
[1], 323.15 K, x2 = 0.9799	–	822.4
[1], 328.15 K, x2 = 0	–	1366.6
[1], 328.15 K, x2 = 0.1273	–	1344.3
[1], 328.15 K, x2 = 0.2596	–	1315.9
[1], 328.15 K, x2 = 0.3787	–	1283.8
[1], 328.15 K, x2 = 0.4996	–	1242.4
[1], 328.15 K, x2 = 0.6368	–	1178.3
[1], 328.15 K, x2 = 0.7624	–	1094.3
[1], 328.15 K, x2 = 0.8787	–	977.7
[1], 328.15 K, x2 = 0.9498	–	873.9
[1], 328.15 K, x2 = 0.9799	–	818
[1], 333.15 K, x2 = 0	–	1362.3
[1], 333.15 K, x2 = 0.1273	–	1339.9
[1], 333.15 K, x2 = 0.2596	–	1311.5
[1], 333.15 K, x2 = 0.3787	–	1279.4
[1], 333.15 K, x2 = 0.4996	–	1237.9
[1], 333.15 K, x2 = 0.6368	–	1173.8
[1], 333.15 K, x2 = 0.7624	–	1089.7
[1], 333.15 K, x2 = 0.8787	–	973.1
[1], 333.15 K, x2 = 0.9498	–	869.5
[1], 333.15 K, x2 = 0.9799	–	813.7
[2], 308.15 K, x2 = 0.1224	0.223	–
[2], 308.15 K, x2 = 0.2622	0.436	–
[2], 308.15 K, x2 = 0.2665	0.442	–
[2], 308.15 K, x2 = 0.374	0.556	–
[2], 308.15 K, x2 = 0.4927	0.622	–
[2], 308.15 K, x2 = 0.5007	0.623	–
[2], 308.15 K, x2 = 0.5108	0.627	–
[2], 308.15 K, x2 = 0.5118	0.63	–
[2], 308.15 K, x2 = 0.6191	0.606	–
[2], 308.15 K, x2 = 0.744	0.532	–
[2], 308.15 K, x2 = 0.7466	0.533	–
[2], 308.15 K, x2 = 0.7505	0.521	–
[2], 308.15 K, x2 = 0.8709	0.354	–
[2], 313.15 K, x2 = 0.113	0.187	–
[2], 313.15 K, x2 = 0.2393	0.374	–
[2], 313.15 K, x2 = 0.2549	0.385	–
[2], 313.15 K, x2 = 0.3933	0.518	–
[2], 313.15 K, x2 = 0.4936	0.569	–
[2], 313.15 K, x2 = 0.4959	0.567	–
[2], 313.15 K, x2 = 0.499	0.568	–
[2], 313.15 K, x2 = 0.6245	0.564	–
[2], 313.15 K, x2 = 0.7406	0.507	–
[2], 313.15 K, x2 = 0.8666	0.369	–
[2], 323.15 K, x2 = 0.1187	0.185	–
[2], 323.15 K, x2 = 0.2569	0.406	–
[2], 323.15 K, x2 = 0.2694	0.422	–
[2], 323.15 K, x2 = 0.3969	0.538	–
[2], 323.15 K, x2 = 0.527	0.6	–
[2], 323.15 K, x2 = 0.5431	0.611	–
[2], 323.15 K, x2 = 0.6214	0.598	–
[2], 323.15 K, x2 = 0.7499	0.548	–
[2], 323.15 K, x2 = 0.8707	0.413	–
